{
  "source": "patent US7326788B2",
  "about": "“Quinolinone derivatives as inhibitors of c-fms kinase” (Janssen Pharmaceutica N.V., priority 2003, dated 2008)",
  "data": [
    {"biological_target": "T1, c-fms (Homo sapiens, UniProt P07333)", "T1 construct": "3DP", "T1 sequence (P07333 20-972)": "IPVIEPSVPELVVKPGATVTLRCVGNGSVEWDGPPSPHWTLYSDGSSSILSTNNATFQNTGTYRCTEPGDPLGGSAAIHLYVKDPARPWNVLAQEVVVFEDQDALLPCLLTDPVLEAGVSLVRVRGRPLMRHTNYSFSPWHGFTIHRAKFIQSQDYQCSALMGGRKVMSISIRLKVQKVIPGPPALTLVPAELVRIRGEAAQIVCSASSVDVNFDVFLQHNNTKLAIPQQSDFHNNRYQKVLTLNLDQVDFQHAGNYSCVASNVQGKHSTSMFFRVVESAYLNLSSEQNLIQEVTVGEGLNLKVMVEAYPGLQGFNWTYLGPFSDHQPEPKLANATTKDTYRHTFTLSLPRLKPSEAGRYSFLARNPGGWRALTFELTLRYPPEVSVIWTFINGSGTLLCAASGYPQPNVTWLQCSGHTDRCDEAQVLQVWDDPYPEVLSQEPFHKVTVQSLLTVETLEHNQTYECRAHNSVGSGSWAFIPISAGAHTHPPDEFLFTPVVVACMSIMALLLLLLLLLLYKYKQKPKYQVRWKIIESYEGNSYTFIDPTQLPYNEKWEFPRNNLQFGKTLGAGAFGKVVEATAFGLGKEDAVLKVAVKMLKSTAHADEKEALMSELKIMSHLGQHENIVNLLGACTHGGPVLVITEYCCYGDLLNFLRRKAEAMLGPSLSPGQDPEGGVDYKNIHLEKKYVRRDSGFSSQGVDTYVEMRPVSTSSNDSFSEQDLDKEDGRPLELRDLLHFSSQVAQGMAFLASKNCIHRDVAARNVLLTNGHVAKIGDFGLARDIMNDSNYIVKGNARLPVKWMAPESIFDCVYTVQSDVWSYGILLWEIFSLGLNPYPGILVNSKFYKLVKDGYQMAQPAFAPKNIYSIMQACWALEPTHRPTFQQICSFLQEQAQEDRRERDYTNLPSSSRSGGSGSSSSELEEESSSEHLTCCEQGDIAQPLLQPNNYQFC", "assay": "c-fms autophosphorylation, fluorescence polarization competition immunoassay", "type": "biochemical", "conditions": "10 nM c-fms, 1 mM ATP, 5 mM MgCl2, 2% DMSO; averages of three independent measurements", "description": "The assay was performed in black 96-well microplates (LJL BioSystems). The assay buffer used was 100 mM HEPES, pH 7.5, 1 mM DTT, 0.01% (v/v) Tween-20. Compounds were diluted in assay buffer containing 4% DMSO just prior to the assay. […] The kinase reaction was initiated by adding 2 μL of 5 mM ATP (Sigma) in assay buffer. The final concentrations in the assay were 10 nM c-fms, 1 mM ATP, 5 mM MgCl2, 2% DMSO. Control reactions were ran in each plate: in positive and negative control wells, assay buffer (made 4% in DMSO) was substituted for the compound; in addition, positive control wells received 1.2 μL of 50 mM EDTA.\nThe plates were incubated at room temperature for 45 min. At the end of the incubation, the reaction was quenched with 1.2 μL of 50 mM EDTA (EDTA was not added to the positive control wells at this point; see above). Following a 5-min incubation, each well received 10 μL of a 1:1:3 mixture of anti-phosphotyrosine antibody, 10X, PTK green tracer, 10X (vortexed), FP dilution buffer, respectively (all from PanVera, cat. #P2837). The plate was covered, incubated for 30 min at room temperature and the fluorescence polarization was read on the Analyst. The instrument settings were: 485 nm excitation filter; 530 nm emission filter; Z height: middle of well; G factor: 0.93. […] The reported IC50 values are averages of three independent measurements.", "units": {"IC50": "nM"}, "values": [
      {"smiles": "Cc1cc(-c2c(-c3ccccc3)c3cc(Br)ccc3[nH]c2=O)on1", "IC50": "< 500"},
      {"smiles": "CCc1ccc(-c2c(-c3cnc[nH]3)c(=O)[nH]c3ccc(C#N)cc23)cc1", "IC50": "< 500"},
      {"smiles": "CCc1ccc(-c2c(-c3cc(C)no3)c(=O)[nH]c3ccc(C#N)cc23)cc1", "IC50": "< 500"},
      {"smiles": "Cc1cc(-c2c(-c3ccc(C(C)C)cc3)c3cc(C#N)ccc3[nH]c2=O)on1", "IC50": "< 500"},
      {"smiles": "C=Cc1ccc(-c2c(-c3cc(C)no3)c(=O)[nH]c3ccc(C#N)cc23)cc1", "IC50": "< 500"},
      {"smiles": "Cc1cc(-c2c(C3=CCCCCC3)c3cc(C#N)ccc3[nH]c2=O)on1", "IC50": "< 500"},
      {"smiles": "CC(C)(C)c1cc(-c2c(-c3ccccc3)c3cc(Cl)ccc3[nH]c2=O)on1", "IC50": "< 500"},
      {"smiles": "Cc1cc(-c2c(-c3cccc(O)c3)c3cc(Cl)ccc3[nH]c2=O)on1", "IC50": "< 500"},
      {"smiles": "Cc1cc(-c2c(-c3ccccc3F)c3cc(Cl)ccc3[nH]c2=O)on1", "IC50": "< 500"},
      {"smiles": "O=C(O)c1cc(-c2c(-c3ccccc3)c3cc(Cl)ccc3[nH]c2=O)on1", "IC50": "< 500"},
      {"smiles": "Cc1cc(-c2c(-c3cccs3)c3cc(Cl)ccc3[nH]c2=O)on1", "IC50": "< 500"},
      {"smiles": "Cc1cc(-c2c(N3CCCCC3)c3cc(Cl)ccc3[nH]c2=O)on1", "IC50": "< 500"},
      {"smiles": "O=c1[nH]c2ccc(Br)cc2c(-c2ccccc2)c1-c1cnc[nH]1", "IC50": "< 500"},
      {"smiles": "Cc1cc(-c2c(-c3cc4ccccc4s3)c3cc(Cl)ccc3[nH]c2=O)on1", "IC50": "500 to 1000"},
      {"smiles": "Cc1cc(-c2c(N3CCC(C)(C)CC3)c3cc(Cl)ccc3[nH]c2=O)on1", "IC50": "500 to 1000"},
      {"smiles": "Cc1cc(-c2c(-c3ccc(OC(F)(F)F)cc3)c3cc(C#N)ccc3[nH]c2=O)on1", "IC50": "500 to 1000"},
      {"smiles": "COc1cccc(-c2c(-c3cc(C)no3)c(=O)[nH]c3ccc(Cl)cc23)c1", "IC50": "500 to 1000"},
      {"smiles": "O=c1[nH]c2ccc(Cl)cc2c(-c2ccccc2)c1-c1cc(CCc2ccccc2)no1", "IC50": "1000 to 10000"},
      {"smiles": "CC(=O)Nc1cc(-c2c(-c3ccccc3)c3cc(Cl)ccc3[nH]c2=O)on1", "IC50": "1000 to 10000"},
      {"smiles": "Cc1cc(-c2c(-c3cccnc3)c3cc(Cl)ccc3[nH]c2=O)on1", "IC50": "1000 to 10000"},
      {"smiles": "Cc1cc(-c2c(-c3ccccn3)c3cc(Cl)ccc3[nH]c2=O)on1", "IC50": "1000 to 10000"},
      {"smiles": "Cc1cc(-c2c(-c3cc4ccccc4o3)c3cc(Cl)ccc3[nH]c2=O)on1", "IC50": "1000 to 10000"},
      {"smiles": "Cc1cc(-c2c(-c3ccc4ccccc4c3)c3cc(Cl)ccc3[nH]c2=O)on1", "IC50": "1000 to 10000"},
      {"smiles": "O=c1[nH]c2ccc(Cl)cc2c(-c2ccccc2)c1-c1cncc(Br)c1", "IC50": "1000 to 10000"},
      {"smiles": "O=c1[nH]c2ccc(Cl)cc2c(-c2ccccc2)c1-c1ccccn1", "IC50": "1000 to 10000"},
      {"smiles": "O=c1[nH]c2ccc(Cl)cc2c(-c2ccccc2)c1-c1nc2ccccc2[nH]1", "IC50": "1000 to 10000"},
      {"smiles": "O=c1[nH]c2ccc(Cl)cc2c(-c2ccccc2)c1-c1cccnc1", "IC50": "1000 to 10000"},
      {"smiles": "Cc1cc(-c2c(-c3ccccc3)c3cc(O)ccc3[nH]c2=O)on1", "IC50": "1000 to 10000"},
      {"smiles": "Cc1cc(-c2c(-c3ccccc3)c3cc(C(O)CO)ccc3[nH]c2=O)on1", "note": "(stereo not shown)", "IC50": "> 10000"},
      {"smiles": "Cc1cc(-c2c(-c3ccccc3)c3ccc(Cl)cc3[nH]c2=O)on1", "IC50": "> 10000"},
      {"smiles": "CCOC(=O)c1cccc(-c2c(-c3ccccc3)c3cc(Cl)ccc3[nH]c2=O)c1", "IC50": "> 10000"},
      {"smiles": "Cc1cc(-c2c(-c3ccccc3)c3cccc(Cl)c3[nH]c2=O)on1", "IC50": "> 10000"},
      {"smiles": "O=c1[nH]c2ccc(Cl)cc2c(-c2ccccc2)c1-c1nnn[nH]1", "IC50": "> 10000"},
      {"smiles": "Cc1cc(-c2c(-c3ccccc3)c3cc(CO)ccc3[nH]c2=O)on1", "IC50": "> 10000"},
      {"smiles": "Cc1cc(-c2c(-c3ccccc3)c3cc(C(=O)O)ccc3[nH]c2=O)on1", "IC50": "1000 to 10000"},
      {"smiles": "O=c1[nH]c2ccc(Cl)cc2c(-c2ccccc2)c1-c1cn(Cc2ccccc2)nn1", "IC50": "500 to 1000"},
      {"smiles": "CC(C)Cc1coc(-c2c(-c3ccccc3)c3cc(Cl)ccc3[nH]c2=O)n1", "IC50": "> 10000"}
    ]}
  ]
}
